Holding throughout (experiment): inhibition of tumour cell growth, NCI panel, 48 h
The test system of test [1] is A498 renal.
For test [2], the system named is ACHN renal.
Test [3] relates to K-562 leukemia.
The test system of test [4] is NCI-H226 lung.
The test system of test [5] is NCI-H460 lung.
In test [6] the test system is SK-MEL-28 melanoma.
Test [7] relates to HOP-62 NSCLC.
In test [8] the test system is SF-268 CNS.
For test [9], the system named is T-47D breast.

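The compound was tested at five concentrations on cells cultured in 96-well plates, with a 48-hour exposure period. GI50 = concentration required for 50% inhibition of growth. The concentration for full growth arrest is given as TGI.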 Bounds are passed on as bounds.

Results on 16 compounds are retold here after PubChem BioAssay (NCI).

For `CC/C=C/c1cc2cc[nH]c2c2c1C(C)C[C@@H]2C` (stereo partly specified), the TGI was 32.7 µM in [1]; > 100 µM in [2]; 65.9 µM in test [3]; 39 µM in test [4]; 65.3 µM in test [5]; 84.4 µM in test [6].

For `S=c1nc(N2CCCCC2)ss1`, the TGI is 43.3 µM in test [1]; 67 µM in test [2]; 64.6 µM in test [7]; 52.1 µM in test [3]; > 100 µM in [4]; 80.5 µM in [5]. Further, the TGI was found to be 49.5 µM in [8] and 36.4 µM in test [6].

With `Clc1ccc(Nc2ccnc(NCCCNc3ccnc4cc(Cl)ccc34)n2)cc1`, the GI50 in [1] is 1.29 µM; in test [2], 1.57 µM; in [7], 1.48 µM; in test [6] it was 1.64 µM. The TGI in test [1] worked out at 2.66 µM; in test [2] it was 3.04 µM; in [7], 2.94 µM; in test [6], 3.07 µM.

For `CC(=O)/C=C/c1ccc(C)cc1`, the TGI in [1], in test [2], in [7], in test [3], in test [4] and in test [5] was > 100 µM throughout. Also, the TGI in [8] and in test [6] was > 100 µM each time.

On to `C1=Nc2ccccc2C=Nc2ccccc2C=Nc2ccccc2C=Nc2ccccc21.[Cl-].[Pt+2]`, for which the GI50 in test [1] is 23.2 µM; in test [2], 19 µM; in test [7], 15.1 µM; in [3], 3.61 µM; in test [5], 25.7 µM; in [8] it was 25.1 µM. For the same compound, the GI50 in [6] was 14.8 µM. The TGI was 61.5 µM in [1]; 49 µM in [2]; 45.6 µM in test [7]; 93.7 µM in test [3]; > 100 µM in test [5]; 75.9 µM in test [8]. The compound also registered a TGI in test [6] of 64.4 µM.

Turning to `CCOC(=O)/C(=C\c1ccc[nH]1)C(=O)c1ccccc1`, the TGI in test [2], in test [7], in [3], in test [4], in test [5] and in test [8] was > 100 µM in each case. In addition, the TGI in [6] is > 100 µM.

For the compound `O=c1c2cccnc2ncn1CCN1CCCC1`, the TGI in test [2], in test [7], in test [3], in [4], in test [5] and in test [8] was > 100 µM throughout. Besides, the TGI in test [6] is > 100 µM.

For `CCC(C(=O)c1ccccc1)C(CCCC(=O)Nc1c(C)cccc1C)N=O` (stereo unspecified), the TGI in [1], in [2], in test [7], in [3], in test [4] and in test [5] was > 100 µM each time. The TGI in test [8] and in test [6] was > 100 µM each time.

For `CCOP(=O)(OCC)C1=NC=CC=CC1n1c(-c2ccccc2)nn(CC)c1=O` (stereo unspecified), the TGI in [2], in test [7], in test [4], in [5], in test [8] and in test [6] was > 100 µM in each case.

In the case of `Cc1cc2cn3c4cccnc4[nH]c(=O)c3c2cc1C`, the GI50 in [1] is 3.8 µM; in [2], 1.73 µM; in [7] it was 1.5 µM; in test [4] it was 11.2 µM; in [6], 1.53 µM; in test [9], 1.84 µM. Further, the TGI was found to be 18.5 µM in [1]; 3.1 µM in test [2]; 2.85 µM in test [7]; 28 µM in test [4]; 2.95 µM in [6]; 4 µM in test [9].

As to `CC(C)C(=O)/C=C/c1ccc(Cl)c(Cl)c1`, the TGI was 62.1 µM in [1]; 32.7 µM in test [2]; 72.2 µM in test [3]; 48 µM in [5]; 40.4 µM in [8]; 35.3 µM in test [6].

With `COc1cc(/C=C(\OC(C)=O)c2ccc3c(c2)OCO3)cc(OC)c1OC`, the TGI in [1] was 71.4 µM; in [2], 69.3 µM; in test [7], 47.7 µM; in test [3] it was > 100 µM; in test [4], 30.7 µM; in test [5], > 100 µM. Moreover, the TGI in [8] stood at 67.5 µM; in test [6], 41.9 µM.

For the compound `N#CC1CC2(C(=O)C1=O)c1ccccc1-c1ccccc12` (stereo unspecified), the TGI in [1], in [2], in [7], in test [3], in [4] and in test [5] was > 100 µM throughout. Moreover, the TGI in test [8] and in [6] was > 100 µM throughout.

With `Cn1cnc([N+](=O)[O-])c1Sc1nnnn1-c1ccccc1`, the TGI in [1] is 38.9 µM; in test [2] it was 27 µM; in test [7], > 100 µM; in test [3], 19.9 µM; in [4], 36.3 µM; in test [5], 33.5 µM. Moreover, the values for the TGI in test [8] and in [6] were 39.4 µM and 28.6 µM, respectively.

`O=C(NCc1ccncc1)C1COc2cc(-c3cc(=O)c4ccccc4o3)ccc2O1` (stereo unspecified): the TGI in test [2], in test [7], in [3], in [5] and in test [6] was > 100 µM throughout.

Consider `N#CC1C2CCC3(CC2CCN1C(=O)c1ccccc1)OCCO3` (stereo unspecified), for which the TGI in test [1], in test [2], in test [7], in [3], in test [5] and in test [8] was > 100 µM in each case. In addition, the TGI in test [6] was > 100 µM.
